Test results: patent US20210139517A1, “BICYCLIC HETEROARYL COMPOUNDS AND USES THEREOF” (Revolution Medicines, Inc., priority 2019, published 2021)

Tested on: SOS1 function in cells: cellular pERK in PC-9 cells (EGFR Ex19Del)
Test: pERK potency assay in PC-9 cells (AlphaLISA SureFire Ultra p-ERK1/2)
Assay type: cell-based
Settings: 1 hour incubation
Protocol: The purpose of this assay is tomeasure the ability of test compounds to inhibit SOS1 function in cells. SOS1 activates RAS proteins by catalyzing the conversion of RAS-GDP to RAS-GTP in response to receptor tyrosine kinase activation. […] The procedure described below measures the level of cellular pERK in response to test compounds in PC-9 cells (EGFR Ex19Del).
PC-9 cells were grown and maintained using media and procedures recommended by the ATCC. On the day prior to compound addition, cells were plated in 384-well cell culture plates (40 μL/well) and grown overnight in a 37° C., 5% CO2 incubator. Test compounds were prepared in 10, 3-fold dilutions in DMSO, with a top concentration of 10 mM. On the day of the assay, 40 nL of test compound was added to each well of cell culture plate using an Echo550 liquid handler (LabCyte). Concentrations of test compound were tested in duplicate with highest test concentration being 10 μM. After compound addition, cells were incubated for 1 hour at 37° C., 5% CO2. Following incubation, culture medium was removed and cells were washed once with phosphate buffered saline.
Cellular pERK level was determined using the AlphaLISA SureFire Ultra p-ERK1/2 Assay Kit (PerkinElmer). Cells were lysed in 25 μL lysis buffer, with shaking at 600 RPM at room temperature for 15 minutes. Lysate (10 μL) was transferred to a 384-well Opti-plate (PerkinElmer) and 5 μL acceptor mix was added. The plate was centrifuged at 1000 RPM for 1 minute, and incubated in the dark for 2 hours. Following this incubation, 5 μL of donor mix was added, the plate was sealed and centrifuged at 1000 RPM for 1 minute, and the mixture was incubated for 2 hours at room temperature. Signal was read on an Envision plate reader (PerkinElmer) using standard AlphaLISA settings. Analysis of raw data was carried out in Excel (Microsoft) and Prism (GraphPad). Signal was plotted vs. the decadal logarithm of compound concentration, and IC50 was determined by fitting a 4-parameter sigmoidal concentration response model.

IC50	IC50 (Homo sapiens, PC-9, 1 h)	SMILES
16.9 nM		CO[C@@]1(c2cc3c(N[C@H](C)c4cccc(C(F)F)c4C)ncnc3n(C)c2=O)CCN(C(C)=O)C1 [Example 32-99]
47.7 nM		COC1(c2cc3c(N[C@H](C)c4cccc5c4OCC5(F)F)ncnc3n(C)c2=O)CCS(=O)(=O)CC1 [Example 32-77]
321 nM		COC1(c2cc3c(N[C@H](C)c4cccc(C(F)F)c4F)ncnc3n(C)c2=O)CCC2(CC1)CS(=O)(=NC1CC1)C2 (stereo partly shown) [Example 32-83]
348 nM		COC1(c2cc3c(N[C@H](C)c4cccc(C(F)F)c4F)ncnc3n(C)c2=O)CCN(C(C)=O)[C@@H]1C (stereo partly shown) [Example 32-101]
187 nM		C[C@@H](Nc1ncnc2c1cc(C1(O)CCN(C)CC1)c(=O)n2C)c1cccc(C(F)F)c1F [Example 28-1]
41.8 nM		CC(=O)N1CCC(OC2CC2)(c2cc3c(N[C@H](C)c4cccc(C(F)F)c4F)ncnc3n(C)c2=O)C1 (stereo partly shown) [Example 32-71]
201 nM		COC1(c2cc3c(N[C@H](C)c4cccc(C(F)F)c4F)ncnc3n(C)c2=O)CCS(=O)(=O)C1 (stereo partly shown) [Example 32-74]
2240 nM		COC1(c2cc3c(N[C@H](C)c4cccc(C(F)F)c4F)ncnc3n(C)c2=O)CCN(C)CC1 [Example 32-3]
173 nM		COC1(c2cc3c(N[C@H](C)c4cccc(C(F)F)c4F)ncnc3n(C)c2=O)CC2CS(=O)(=O)CC2C1 (stereo partly shown) [Example 32-84]
28 nM		CO[C@]1(c2cc3c(N[C@H](C)c4cccc5c4OCC5(F)F)ncnc3n(C)c2=O)CCN(C(C)=O)C1 [Example 32-94]
350 nM		CC(=O)N1CCC(OC2CC2)(c2cc3c(N[C@H](C)c4cccc(C(F)F)c4F)ncnc3n(C)c2=O)C1 (stereo partly shown) [Example 32-70]
572 nM		Cc1nc(N[C@H](C)c2cccc(C(F)F)c2F)c2cc(C3(O)CCN(C)CC3)c(=O)n(C)c2n1 [Example 28-2]
13.4 nM		COC1(c2cc3c(N[C@H](C)c4cccc(C(F)F)c4C)ncnc3n(C)c2=O)CCN(C(C)=O)CC1 [Example 32-87]
63 nM		C[C@@H](Nc1ncnc2c1cc(C1(C#N)CCN(C)CC1)c(=O)n2C)c1cccc(C(F)F)c1F [Example 36-2]
77.8 nM		CO[C@@]1(c2cc3c(N[C@H](C)c4cccc(C(F)F)c4F)nc(C)nc3n(C)c2=O)CCN(C(C)=O)C1 [Example 32-69]
17.5 nM		COC1(c2cc3c(N[C@H](C)c4cccc5c4OCC5(F)F)ncnc3n(C)c2=O)CCN(C(C)=O)CC1 [Example 32-76]
8.1 nM		COC1(c2cc3c(N[C@@H](C)c4cccc(C(F)F)c4F)ncnc3n(C)c2=O)CCN(C(C)=O)CC1 [Example 32-88]
798 nM		COC1(c2cc3c(N[C@H](C)c4cccc(C(F)F)c4F)ncnc3n(C)c2=O)CN(C(C)=O)CC12CC2 (stereo partly shown) [Example 32-95]
53.7 nM		COC1(c2cc3c(N[C@H](C)c4cccc(C(F)F)c4F)ncnc3n(C)c2=O)CC2CS(=O)(=O)CC2C1 (stereo partly shown) [Example 32-85]
231 nM		CO[C@]1(c2cc3c(N[C@H](C)c4cccc(C(F)F)c4C)ncnc3n(C)c2=O)CCN(C(C)=O)C1 [Example 32-98]

The remaining lines, values behind:

SMILES	IC50	IC50 (Homo sapiens, PC-9, 1 h)
COc1ccc(Cc2cc3c(N[C@H](C)c4cccc(C(F)F)c4F)nc(C)nc3n(C)c2=O)cc1OC [Example 20-1]	6600 nM	
C[C@@H](Nc1ncnc2c1cc(-c1cncnc1)c(=O)n2C)c1cccc(C(F)F)c1F [Example 21-2]	247 nM	
CCc1c(C(F)F)cccc1[C@@H](C)Nc1ncnc2c1cc(C1CCN(C(C)=O)CC1)c(=O)n2C [Example 8-7]	351 nM	
C[C@@H](Nc1ncnc2c1cc(C1=CCS(=O)(=O)CC1)c(=O)n2CC#N)c1cccc(C(F)F)c1F [Example 11-3]	80.7 nM	
C[C@@H](Nc1ncnc2c1cc(C1(N)CCC3(CC1)CS(=O)(=O)C3)c(=O)n2C)c1cccc(C(F)F)c1F [Example 31-5]	26.7 nM	
C[C@@H](Nc1ncnc2c1cc(C1CCN(CC(F)F)CC1)c(=O)n2C)c1cccc(C(F)F)c1F [Example 8-13]	364 nM	
C[C@@H](Nc1ncnc2c1cc(-c1ccc[nH]1)c(=O)n2C)c1cccc(C(F)F)c1F [Example 21-1]	1160 nM	
Cc1nc(N[C@H](C)c2cccc(C(F)F)c2F)c2cc(C3CCN(CC(F)(F)F)CC3)c(=O)n(C)c2n1 [Example 8-17]	542 nM	
C[C@@H](Nc1ncnc2c1cc(Cc1ccccc1)c(=O)n2C)c1cccc(C(F)(F)F)c1 [Example 20-3]	2640 nM	
COC1(c2cc3c(N[C@H](C)c4cccc(C(F)F)c4F)ncnc3n(C3CC3)c2=O)CCN(C(C)=O)CC1 [Example 11-4]	32.2 nM	
COc1cccc(Cc2cc3c(N[C@H](C)c4cccc(C(F)F)c4F)nc(C)nc3n(C)c2=O)c1OC [Example 20]	3950 nM	
C[C@@H](Nc1ncnc2c1cc(C1CCN(S(C)(=O)=O)CC1)c(=O)n2C)c1cccc(C(F)F)c1F [Example 8-15]	394 nM	
Cc1nc(N[C@H](C)c2cccc(C(F)F)c2F)c2cc(C3CCS(=O)(=O)CC3)c(=O)n(C)c2n1 [Example 8-12]	138 nM	
C[C@@H](Nc1ncnc2c1cc(C1CCN(C3COC3)CC1)c(=O)n2C)c1cccc(C(F)F)c1F [Example 8-8]	389 nM	
Cc1nc(N[C@H](C)c2cccc(C(F)F)c2F)c2cc(C3COC3)c(=O)n(C)c2n1 [Example 16, 4-[[(1R)-1-[3-(difluoromethyl)-2-fluoro-phenyl]ethyl]amino]-2,8-dimethyl-6-(oxetan-3-yl)pyrido[2,3-d]pyrimidin-7-one]		346 nM
C[C@@H](Nc1ncnc2c1cc(-c1cnc(F)nc1)c(=O)n2C)c1cccc(C(F)F)c1F [Example 21-5]	1200 nM	
CC(=O)N1CC2CC2(c2cc3c(N[C@H](C)c4cccc(C(F)F)c4F)ncnc3n(C)c2=O)C1 (stereo partly drawn) [Example 54, 6-{3-acetyl-3-azabicyclo[3.1.0]hexan-1-yl}-4-{[(1R)-1-[3-(difluoromethyl)-2-fluorophenyl]ethyl]amino}-8-methyl-7H,8H-pyrido[2,3-d]pyrimidin-7-one]		46.3 nM
C[C@@H](Nc1ncnc2c1cc(C1CCN(CCF)CC1)c(=O)n2C)c1cccc(C(F)F)c1F [Example 8-4]	229 nM	
Cc1c([C@@H](C)Nc2ncnc3c2cc(C2CCS(=O)(=O)CC2)c(=O)n3C)cccc1C(F)(F)F [Example 8-11]	45.1 nM	
C[C@@H](Nc1ncnc2c1cc(C1CCS(=O)(=O)CC1)c(=O)n2C)c1cccc(C(F)F)c1F [Example 8-5]	33.5 nM	
C[C@@H](Nc1ncnc2c1cc(C1CCN(CC(F)(F)F)CC1)c(=O)n2C)c1cccc(C(F)F)c1F [Example 8-16]	917 nM	
CC(=O)N1CCC(c2cc3c(N[C@H](C)c4cc(N)cc(C(F)(F)F)n4)ncnc3n(C)c2=O)CC1 [Example 17, 6-(1-acetyl-4-piperidyl)-4-[[(1R)-1-[4-amino-6-(trifluoromethyl)-2-pyridyl]ethyl]amino]-8-methyl-pyrido[2,3-d]pyrimidin-7-one]		377 nM
Cc1nc(N[C@H](C)c2cccc(C(F)F)c2F)c2cc(C3=CCCOC3)c(=O)n(CCO)c2n1 [Example 11-1]	345 nM	
CC(=O)N1CCC(c2cc3c(N[C@H](C)c4cccc(C(F)F)c4F)nc(C)nc3n(C)c2=O)CC1 [Example 8-9]	86.8 nM	
CC(=O)N1CCC(c2cc3c(N[C@H](C)c4cccc5c4CCC5(F)F)ncnc3n(C)c2=O)CC1 [Example 8-6]	34.4 nM	
C[C@@H](Nc1ncnc2c1cc(C1CCN(C(=O)CO)CC1)c(=O)n2C)c1cccc(C(F)F)c1F [Example 8-10]	61.5 nM	
